Here are results for two compounds from publication PMC6465099 (Clinical Pharmacology and Therapeutics, 2018).

A short description of data set [1]: Clinical crossover study: iohexol clearance. In kind it is in vivo, human. Particulars: for clearance: human, plasma, intravenous.
The next data set has as its target T1, OCT2 (Homo sapiens, UniProt O15244).
T1 sequence (O15244 1-555): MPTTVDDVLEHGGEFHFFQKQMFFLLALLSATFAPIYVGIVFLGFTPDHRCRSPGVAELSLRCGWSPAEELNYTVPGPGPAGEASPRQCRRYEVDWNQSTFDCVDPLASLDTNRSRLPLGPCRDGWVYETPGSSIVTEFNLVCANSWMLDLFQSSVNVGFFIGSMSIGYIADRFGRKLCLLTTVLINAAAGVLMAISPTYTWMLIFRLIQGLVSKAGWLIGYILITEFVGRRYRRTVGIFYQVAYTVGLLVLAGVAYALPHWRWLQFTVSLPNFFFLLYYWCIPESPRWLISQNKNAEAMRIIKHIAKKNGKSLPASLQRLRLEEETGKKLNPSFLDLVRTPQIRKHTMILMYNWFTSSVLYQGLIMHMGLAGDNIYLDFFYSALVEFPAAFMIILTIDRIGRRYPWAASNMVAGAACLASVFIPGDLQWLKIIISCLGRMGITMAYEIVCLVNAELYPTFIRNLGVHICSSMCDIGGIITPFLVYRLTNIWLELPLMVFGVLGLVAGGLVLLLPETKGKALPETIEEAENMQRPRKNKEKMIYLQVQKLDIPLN
Briefly: Inhibition of OCT2-mediated. It counts as cell-based. Particulars: sum of unbound Cmax/IC50 of abemaciclib, M2 and M20.

In a further data set the target is MATE2-K (Homo sapiens, UniProt Q86VL8). Description: Inhibition of MATE2-K-mediated. The settings on record: sum of unbound Cmax/IC50 of abemaciclib, M2 and M20. In kind it is cell-based.
The next data set deals with T2, MATE1 (Homo sapiens, UniProt Q96FL8).
T2 sequence (Q96FL8 1-570): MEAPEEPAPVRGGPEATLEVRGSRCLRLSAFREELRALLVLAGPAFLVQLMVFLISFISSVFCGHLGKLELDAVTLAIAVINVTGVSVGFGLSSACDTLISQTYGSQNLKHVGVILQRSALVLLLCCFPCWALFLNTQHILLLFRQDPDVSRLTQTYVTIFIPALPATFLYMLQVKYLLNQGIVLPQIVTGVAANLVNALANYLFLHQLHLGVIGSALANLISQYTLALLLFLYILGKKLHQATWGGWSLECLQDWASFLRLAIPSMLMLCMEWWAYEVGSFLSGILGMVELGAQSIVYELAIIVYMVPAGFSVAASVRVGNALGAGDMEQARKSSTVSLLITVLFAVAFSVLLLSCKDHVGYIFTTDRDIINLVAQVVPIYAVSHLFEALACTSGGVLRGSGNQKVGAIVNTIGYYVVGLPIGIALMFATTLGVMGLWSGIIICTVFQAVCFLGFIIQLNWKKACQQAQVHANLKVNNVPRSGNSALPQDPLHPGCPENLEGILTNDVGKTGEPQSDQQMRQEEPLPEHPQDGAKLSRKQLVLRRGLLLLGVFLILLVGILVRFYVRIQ
Briefly: Inhibition of MATE1-mediated. The settings on record: sum of unbound Cmax/IC50 of abemaciclib, M2 and M20. It counts as cell-based.

Data set [2] in a line: Clinical study: renal injury biomarkers. It counts as in vivo, human.
The nature of data set [3]: Clinical study: serum creatinine and estimated GFR after abemaciclib. It counts as in vivo, human.
The conditions of data set [4]: patients with cancer and healthy subjects; cited from earlier work.

Chain of MATE2-K (Q86VL8 1-566 isoform Q86VL8-3): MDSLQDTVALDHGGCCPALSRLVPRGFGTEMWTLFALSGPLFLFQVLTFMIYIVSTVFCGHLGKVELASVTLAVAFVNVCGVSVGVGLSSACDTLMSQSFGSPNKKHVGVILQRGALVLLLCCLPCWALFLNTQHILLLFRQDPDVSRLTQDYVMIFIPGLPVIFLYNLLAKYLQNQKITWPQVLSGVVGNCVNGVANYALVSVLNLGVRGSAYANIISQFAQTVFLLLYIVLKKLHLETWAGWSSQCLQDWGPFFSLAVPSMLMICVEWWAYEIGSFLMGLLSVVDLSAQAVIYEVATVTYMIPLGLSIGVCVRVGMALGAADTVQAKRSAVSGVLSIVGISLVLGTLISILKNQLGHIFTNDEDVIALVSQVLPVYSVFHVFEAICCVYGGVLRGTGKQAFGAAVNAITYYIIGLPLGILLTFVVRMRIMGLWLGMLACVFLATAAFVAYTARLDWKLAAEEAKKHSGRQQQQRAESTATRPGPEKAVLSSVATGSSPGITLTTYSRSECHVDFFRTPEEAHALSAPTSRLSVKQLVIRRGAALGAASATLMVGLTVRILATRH

As to `CCN1CCN(Cc2ccc(Nc3ncc(F)c(-c4cc(F)c5nc(C)n(C(C)C)c5c4)n3)nc2)CC1` [Abemaciclib], in data set [1] (400 mg abemaciclib with iohexol), the “Effect of coadministration on iohexol PK” value is on record as “did not affect”. For the same compound, the “Combined DDI index, OCT2” value at OCT2 turned out to be 0.03. Moreover, the “Combined DDI index, MATE2-K” value at MATE2-K was determined as 0.06. In addition, the “Combined DDI index, MATE1” value on MATE1 amounted to 0.13. Besides, the “Trends in serum cystatin-C or NGAL indicative of renal injury” value in data set [2] (abemaciclib with either metformin or iohexol) is listed as “no trends”. In data set [2] (following abemaciclib dosing), the “Creatinine-normalized urinary concentrations of NGAL and KIM-1” value was “No notable change”. Besides, the “eGFR (CKD-EPI equation using SCr)” value in data set [3] (abemaciclib in combination with iohexol) is 53.6 mL/minute/1.73 m^2; in data set [3] (abemaciclib in combination with metformin), 57.2 mL/minute/1.73 m^2. Also, the “eGFR calculated using serum cystatin-C” value in data set [3] (abemaciclib vs. placebo periods) is listed as “did not change”. For the same compound, the “Mean increase in SCr concentration” value in data set [3] (between 10 and 12 hours postdose, 400 mg abemaciclib, healthy subjects) was 35.7 to 44.6 µmol/L. The “Reversible increase in SCr expected in patients” value in data set [3] (patients dosed with abemaciclib, suggested by the findings) is 10–40%. Besides, the “Time of peak SCr elevation” value in data set [3] (post abemaciclib dose) was 12 h. The “Reversible increase in serum creatinine over baseline” value in data set [4] was 15–40%.
What is called clearance is a measure of how efficiently the substance is removed, as volume per time. Lower therefore signals a low capacity for elimination. On to `CC(=O)N(CC(O)CO)c1c(I)c(C(=O)NCC(O)CO)c(I)c(C(=O)NCC(O)CO)c1I` (stereo not drawn) [iohexol], for which the results for the clearance in data set [1] and in data set [1] (3235 mg) were 85.6 mL/min and 89 mL/min, respectively.
